Data from article PMC6715182, “Helicobacter pylori senses bleach (HOCl) as a chemoattractant using a cytosolic chemoreceptor” (PLoS Biology, 2019).

Target: T1, DgcZ (Escherichia coli, UniProt P31129)
T1 construct: CZB domain (DgcZ-CZB, strain K12)
Assay: cysteine sulfenic acid formation on purified domain, dimedone trapping and immunoblot
Assay type: binding

T1 sequence (P31129 2-127): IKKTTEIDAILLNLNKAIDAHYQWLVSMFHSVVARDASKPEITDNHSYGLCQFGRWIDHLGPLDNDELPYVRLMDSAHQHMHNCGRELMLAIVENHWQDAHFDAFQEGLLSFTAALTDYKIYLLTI

OCl [HOCl]
cysteine sulfenic acid formation on purified domain, dimedone trapping and immun: We found them to be similarly reactive toward HOCl as TlpD
